The values that follow come from patent US20210002689A1, “METHOD FOR DETECTING DIFFERENT PROPERTIES IN A MICROORGANISM POPULATION BY OPTICALLY INDUCED DIELECTROPHORETIC FORCE” (Chang Gung University, priority 2019, published 2021).

In brackets after ≈: the same amount, converted by molar mass.

Assay [1] deals with Staphylococcus aureus strains. The experiment in a line: Vancomycin Etest. The class given is cell-based. The note with it: 125 clinical Staphylococcus aureus strains selected for PAP-AUC (35 hVISA, 90 VSSA); read-out: minimal inhibition concentration.
Experimental: Firstly, the microorganism sample solution 10 is cultured on a blood agar plate. Next, the microorganism sample solution 10 is cultured in 5% carbon dioxide concentration and 37° C. for 16-18 hours. After being cultured, a single strain group is taken from the blood agar plate and is subjected to a matrix-assisted laser desorption ionization time-of-flight (MALDI-TOF) for strains identification. With respect to selecting strains to be identified as Staphylococcus aureus strains, Vancomycin Etest is used in which 125 strains having a minimal inhibition concentration of 2-4 μg/mL are selected for PAP-AUC.
For assay [2], the system named is E. coli ATCC® 25922. The experiment in a line: ODEP force analysis after subjecting to ampicillin. The class given is cell-based, Escherichia coli. The note with it: ampicillin of gradually increased concentration (up to 16 μg/ml), cultured 1.5 hours, FIG. 5. The source says: (§1) Referring to FIG. 1 again, after E. coli ATCC® 35218 and E. coli ATCC® 25922 have been activated, they are made into solutions having bacteria for subsequent antibiotics processing. Steps of making solutions having bacteria are described in detail below: selecting a plurality of activated large E. coli strains; dissolving it in normal saline which is a solution of sodium chloride at 0.9% concentration; adjusting its turbidity to 0.5 McFarland to make the microorganism sample solution 10; in each solution having bacteria, adding different amounts of ampicillin antibiotics powder to make a solution having antibiotics concentration of 0 μg/ml, 4 μg/ml, 8 μg/ml or 16 μg/ml, and finally, culturing each solution of different antibiotics concentration in 5% carbon dioxide concentration and 37° C. for 1.5 hours to make the microorganism sample solution to be tested 14.
(§2) Referring to FIGS. 1 to 4 again, an injection pump is used to inject the microorganism sample solution to be tested 14 into the ODEP device 20 via the sample injection hole 221. Electrical properties (e.g., conduction or polarizability) differences are generated because E. coli ATCC® 35218 and E. coli ATCC® 25922 in the microorganism sample solution to be tested 14 have been subjected to ampicillin. […]

Assay [3] has as its system E. coli ATCC® 35218. The experiment in a line: ODEP force analysis after subjecting to ampicillin. It counts as cell-based, Escherichia coli. The note with it: ampicillin 0, 4, 8 or 16 μg/ml, cultured 1.5 hours, FIG. 5.
From the text: as §1, §2

Assay [4] deals with E. coli ATCC® 25922. The note with it: cited from earlier work.
For assay [5], the system named is E. coli ATCC® 35218. The note with it: cited from earlier work.

`CN[C@H](CC(C)C)C(=O)N[C@H]1C(=O)N[C@@H](CC(N)=O)C(=O)N[C@H]2C(=O)N[C@H]3C(=O)N[C@H](C(=O)N[C@H](C(=O)O)c4cc(O)cc(O)c4-c4cc3ccc4O)[C@H](O)c3ccc(c(Cl)c3)Oc3cc2cc(c3O[C@@H]2O[C@H](CO)[C@@H](O)[C@H](O)[C@H]2O[C@H]2C[C@](C)(N)[C@H](O)[C@H](C)O2)Oc2ccc(cc2Cl)[C@H]1O` [Vancomycin]: the MIC in assay [1] was in the range of 2 to 4 µg/mL (≈ 1.38 to 2.76 µM).
`CC1(C)S[C@@H]2[C@H](NC(=O)[C@H](N)c3ccccc3)C(=O)N2[C@H]1C(=O)O` [ampicillin]: the “force generated by light (ODEP force)” value is 100 μm/sec in assay [2] and 220-260 μm/sec in assay [3]. Also, the minimal inhibition concentration in assay [4] was 2 to 8 µg/mL; in assay [5] it was “greater than 32 μg/ml”.
